A short description of assay [1]: fluconazole-exposed Candida albicans growth modulators – fluorescence, retest, confirmation (AID 2467). In kind it is functional, cell-based.
Assay [2] in a line: NIH-3T3 fibroblast cytotoxicity, dose response, cytotoxicity control, cell-based, fluorescence, Alamar Blue, secondary assay (AID 2327).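 Further: NIH-3T3 mouse fibroblasts cultured with fluconazole at 8 µg/mL.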 In kind it is functional. In general terms: The colour change of resazurin is a common sign of viable cells or microbes.
In assay [3] the target is T1, Histone-lysine N-methyltransferase NSD2 (Homo sapiens, UniProt O96028).
T1 sequence (O96028 whole entry): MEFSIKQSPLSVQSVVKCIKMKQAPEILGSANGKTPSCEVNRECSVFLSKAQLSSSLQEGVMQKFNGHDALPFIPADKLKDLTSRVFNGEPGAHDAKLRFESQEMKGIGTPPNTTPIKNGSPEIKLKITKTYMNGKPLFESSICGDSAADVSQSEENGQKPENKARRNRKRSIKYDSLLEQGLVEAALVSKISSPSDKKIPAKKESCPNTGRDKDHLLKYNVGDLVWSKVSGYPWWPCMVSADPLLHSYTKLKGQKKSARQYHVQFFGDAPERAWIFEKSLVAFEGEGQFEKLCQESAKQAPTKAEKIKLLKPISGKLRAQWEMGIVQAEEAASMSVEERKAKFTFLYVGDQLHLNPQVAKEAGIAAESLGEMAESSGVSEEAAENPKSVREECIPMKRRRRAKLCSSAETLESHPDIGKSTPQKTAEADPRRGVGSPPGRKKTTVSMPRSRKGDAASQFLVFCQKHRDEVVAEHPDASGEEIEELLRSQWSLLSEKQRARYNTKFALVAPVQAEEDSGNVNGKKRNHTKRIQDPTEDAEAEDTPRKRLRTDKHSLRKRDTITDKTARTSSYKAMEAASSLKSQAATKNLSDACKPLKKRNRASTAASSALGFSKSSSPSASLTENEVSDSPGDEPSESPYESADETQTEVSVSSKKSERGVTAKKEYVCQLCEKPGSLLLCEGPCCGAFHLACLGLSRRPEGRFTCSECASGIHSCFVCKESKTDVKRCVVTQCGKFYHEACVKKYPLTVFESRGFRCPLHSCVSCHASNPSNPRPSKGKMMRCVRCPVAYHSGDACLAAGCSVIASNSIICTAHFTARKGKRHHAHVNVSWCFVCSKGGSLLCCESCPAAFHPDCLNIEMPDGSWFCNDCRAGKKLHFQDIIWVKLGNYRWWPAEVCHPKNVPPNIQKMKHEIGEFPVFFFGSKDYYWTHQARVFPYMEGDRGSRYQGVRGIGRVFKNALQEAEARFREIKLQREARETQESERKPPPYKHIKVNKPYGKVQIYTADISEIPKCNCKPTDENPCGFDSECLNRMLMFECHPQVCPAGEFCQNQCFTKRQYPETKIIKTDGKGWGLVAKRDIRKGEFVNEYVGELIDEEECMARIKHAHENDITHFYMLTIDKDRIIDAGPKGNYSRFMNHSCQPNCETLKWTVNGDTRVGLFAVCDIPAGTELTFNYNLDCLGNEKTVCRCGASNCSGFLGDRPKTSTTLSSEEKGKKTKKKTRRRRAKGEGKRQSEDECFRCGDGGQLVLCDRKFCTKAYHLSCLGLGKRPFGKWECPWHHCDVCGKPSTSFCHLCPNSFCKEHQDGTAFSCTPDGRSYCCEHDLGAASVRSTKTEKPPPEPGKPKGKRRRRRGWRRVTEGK
In kind it is biochemical.

Assay [4] is described as follows: viability of uninfected HEp-2 cells – cell-based, HTS, cytotoxicity control for RSV inhibitor project, dose response (AID 2410). Conditions: human respiratory syncytial virus. It counts as functional.
For assay [5], the target named is Genome polyprotein (dengue virus type 2, UniProt P29990). In words: flavivirus cap methylation enzyme inhibition – biochemical, confirmation dose response, primary screen (AID 588689). It counts as functional.
The target of assay [6] is T2, Corticotropin-releasing factor receptor 2/Corticotropin-releasing factor-binding protein (Homo sapiens, UniProt P24387+Q13324).
T2 sequence (Q13324 whole entry): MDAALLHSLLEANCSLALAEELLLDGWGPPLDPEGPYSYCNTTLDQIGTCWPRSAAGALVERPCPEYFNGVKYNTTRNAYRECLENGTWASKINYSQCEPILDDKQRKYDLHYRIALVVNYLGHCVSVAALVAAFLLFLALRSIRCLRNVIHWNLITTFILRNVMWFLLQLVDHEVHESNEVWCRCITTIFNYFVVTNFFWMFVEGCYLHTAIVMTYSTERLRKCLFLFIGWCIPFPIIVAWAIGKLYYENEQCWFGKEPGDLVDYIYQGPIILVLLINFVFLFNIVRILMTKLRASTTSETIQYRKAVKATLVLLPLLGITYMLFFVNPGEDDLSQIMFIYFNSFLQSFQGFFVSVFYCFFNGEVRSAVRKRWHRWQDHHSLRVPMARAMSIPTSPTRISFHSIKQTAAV
T2 sequence (P24387 whole entry): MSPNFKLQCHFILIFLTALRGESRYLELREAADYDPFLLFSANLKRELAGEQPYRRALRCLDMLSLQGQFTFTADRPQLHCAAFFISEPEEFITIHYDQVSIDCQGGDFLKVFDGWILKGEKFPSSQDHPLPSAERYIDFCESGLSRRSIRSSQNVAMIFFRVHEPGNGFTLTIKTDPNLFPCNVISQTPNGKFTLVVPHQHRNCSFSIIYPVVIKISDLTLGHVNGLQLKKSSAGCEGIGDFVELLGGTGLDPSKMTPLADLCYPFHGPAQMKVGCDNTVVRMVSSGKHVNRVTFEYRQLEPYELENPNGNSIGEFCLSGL
In words: activators of CRF receptor 2 with binding protein – uHTS hits, confirmation (AID 602473). Conditions: read-out: EC50_Mean. In kind it is functional.

Assay [7] in a line: blockers of CRF-binding protein–CRF-R2 complex – cell-based, uHTS hits, 384-well, dose response (AID 651639). In kind it is functional, Homo sapiens. Conditions: read-out: IC50_Mean.
Assay [8] addresses T2, Corticotropin-releasing factor receptor 2/Corticotropin-releasing factor-binding protein. Briefly: Dose Response confirmation of uHTS hits for small molecule antagonists of the CRF-binding protein and CRF-R2 receptor complex. In kind it is functional. Conditions: read-out: IC50_Mean.
Assay [9] concerns the target Nonstructural protein 1 (Influenza A virus, UniProt Q194T2). It counts as functional, Influenza A virus (A/California/07/2009(H1N1)).
Assay [10] concerns the target Heat shock protein HSP 90-alpha (Homo sapiens, UniProt P07900). In kind it is functional, organism-based.
In assay [11] the target is T3, Tyrosyl-DNA phosphodiesterase 2 (Homo sapiens, UniProt O95551).
T3 sequence (O95551 whole entry): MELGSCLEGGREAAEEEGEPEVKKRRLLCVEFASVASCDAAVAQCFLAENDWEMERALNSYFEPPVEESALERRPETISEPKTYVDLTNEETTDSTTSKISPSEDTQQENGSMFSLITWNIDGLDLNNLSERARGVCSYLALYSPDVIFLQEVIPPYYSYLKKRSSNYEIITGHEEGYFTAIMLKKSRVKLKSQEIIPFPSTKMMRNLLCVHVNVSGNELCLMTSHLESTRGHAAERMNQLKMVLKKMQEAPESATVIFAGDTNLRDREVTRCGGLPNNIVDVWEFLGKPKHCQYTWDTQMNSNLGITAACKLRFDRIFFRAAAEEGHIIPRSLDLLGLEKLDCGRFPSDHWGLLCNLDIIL
Briefly: potency against TDP2 phosphodiesterase activity – biochemical, epi absorbance, IC50, dose response (AID 743297).

Assay [12] addresses T4, Protein RecA (Mycobacterium tuberculosis, UniProt P9WHJ3).
T4 sequence (P9WHJ3 whole entry): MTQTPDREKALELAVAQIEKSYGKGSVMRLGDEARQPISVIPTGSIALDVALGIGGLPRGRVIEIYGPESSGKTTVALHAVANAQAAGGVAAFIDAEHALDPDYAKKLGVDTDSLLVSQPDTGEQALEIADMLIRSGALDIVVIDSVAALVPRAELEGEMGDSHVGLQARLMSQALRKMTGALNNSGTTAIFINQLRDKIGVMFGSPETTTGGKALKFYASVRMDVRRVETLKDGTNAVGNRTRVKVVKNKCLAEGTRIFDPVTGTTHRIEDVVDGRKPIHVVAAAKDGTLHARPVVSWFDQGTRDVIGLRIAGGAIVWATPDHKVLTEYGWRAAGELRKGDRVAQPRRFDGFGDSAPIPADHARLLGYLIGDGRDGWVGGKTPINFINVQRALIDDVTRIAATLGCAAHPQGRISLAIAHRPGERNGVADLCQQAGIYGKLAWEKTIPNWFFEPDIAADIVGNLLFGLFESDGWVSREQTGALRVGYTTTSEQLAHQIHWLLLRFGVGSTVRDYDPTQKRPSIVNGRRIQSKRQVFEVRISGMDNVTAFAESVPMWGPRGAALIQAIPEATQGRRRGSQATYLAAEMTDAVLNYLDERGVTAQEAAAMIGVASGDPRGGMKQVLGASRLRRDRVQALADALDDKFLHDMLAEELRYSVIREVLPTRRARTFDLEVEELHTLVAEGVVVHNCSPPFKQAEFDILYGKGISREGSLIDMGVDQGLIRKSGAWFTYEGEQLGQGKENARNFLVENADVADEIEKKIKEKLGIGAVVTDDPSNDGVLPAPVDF
In words: Fluorescence Cell-Free Homogeneous Dose Retest to Identify Inhibitors of RecA-Intein Splicing Activity. [Related pubchem assays (depositor defined):AID2097, AID2223, AID489010, AID492950]. It counts as functional.

For assay [13], the target named is T5, Replicative DNA helicase DnaB (Mycobacterium tuberculosis, UniProt P9WMR3).
T5 sequence (P9WMR3 whole entry): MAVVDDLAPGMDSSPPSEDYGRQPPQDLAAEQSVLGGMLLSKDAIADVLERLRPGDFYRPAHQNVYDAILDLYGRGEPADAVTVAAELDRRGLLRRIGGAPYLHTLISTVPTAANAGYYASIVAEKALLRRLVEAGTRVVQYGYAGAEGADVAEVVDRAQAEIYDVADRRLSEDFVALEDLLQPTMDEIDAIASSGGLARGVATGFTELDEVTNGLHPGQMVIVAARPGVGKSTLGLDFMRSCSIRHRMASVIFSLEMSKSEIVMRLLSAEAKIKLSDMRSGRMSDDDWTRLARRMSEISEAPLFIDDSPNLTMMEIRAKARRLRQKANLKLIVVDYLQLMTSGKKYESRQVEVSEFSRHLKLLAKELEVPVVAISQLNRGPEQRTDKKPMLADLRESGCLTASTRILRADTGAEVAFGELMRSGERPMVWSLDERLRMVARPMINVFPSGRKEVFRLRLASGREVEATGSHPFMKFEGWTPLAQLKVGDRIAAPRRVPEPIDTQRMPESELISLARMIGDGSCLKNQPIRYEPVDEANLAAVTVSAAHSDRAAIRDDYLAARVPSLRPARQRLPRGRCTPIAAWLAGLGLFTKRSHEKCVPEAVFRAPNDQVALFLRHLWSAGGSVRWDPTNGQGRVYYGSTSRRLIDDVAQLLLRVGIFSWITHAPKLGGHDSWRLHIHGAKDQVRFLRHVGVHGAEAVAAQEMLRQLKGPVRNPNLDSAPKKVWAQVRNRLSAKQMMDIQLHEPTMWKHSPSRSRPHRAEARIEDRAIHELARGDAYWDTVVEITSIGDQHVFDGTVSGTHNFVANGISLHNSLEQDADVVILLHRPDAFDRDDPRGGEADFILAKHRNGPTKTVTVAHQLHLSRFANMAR
In words: DnaB intein splicing inhibitors, dose response, biochemical, cell-free fluorescence (AID 449749). In kind it is functional.

For assay [14], the target named is T6, Caspase-6 (Homo sapiens, UniProt P55212).
T6 sequence (P55212 whole entry): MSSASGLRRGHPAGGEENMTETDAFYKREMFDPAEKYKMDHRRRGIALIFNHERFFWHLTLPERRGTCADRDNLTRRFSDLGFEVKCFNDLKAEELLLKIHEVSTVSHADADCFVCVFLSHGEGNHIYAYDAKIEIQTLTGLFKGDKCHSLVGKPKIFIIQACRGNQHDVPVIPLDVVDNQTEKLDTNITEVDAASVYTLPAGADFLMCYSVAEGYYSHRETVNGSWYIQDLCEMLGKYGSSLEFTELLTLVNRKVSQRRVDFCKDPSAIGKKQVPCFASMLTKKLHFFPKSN
Briefly: inhibition of CASP6 peptide cleavage – biochemical, VEID-R110 fluorescence, cherry-pick, dose response (AID 720632).

Assay [15] in a line: activation of miR-122 Renilla sensor silencing – cell-based, Huh7 psiCHECK-miR122, Renilla luciferase, cherry-picked, dose response (AID 651956).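 Further: huh7 hepatoma cells stably carrying a psiCHECK-2 miR-122 sensor plasmid; renilla luciferase signal reporting endogenous miR-122 activity after 48 h compound exposure.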 It counts as functional.
The nature of assay [16]: general mammalian cell viability loss – inhibitor set, cherry-pick, set 2, cytotoxicity control for miR-122 modulator project, dose response (AID 720697). It counts as functional, cell-based.
Assay [17] is described as follows: general mammalian cell viability loss – activator set, cherry-pick, cytotoxicity control for miR-122 modulator project, dose response (AID 720690).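 Further: HEK293T human cells scored for general mammalian cytotoxicity.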 It counts as functional, cell-based.

The text below walks through data of ChEMBL document CHEMBL1201862, “PubChem BioAssay data set” (2004).

The source made the active and inactive calls.

Chain of Nonstructural protein 1 (Q194T2 whole entry): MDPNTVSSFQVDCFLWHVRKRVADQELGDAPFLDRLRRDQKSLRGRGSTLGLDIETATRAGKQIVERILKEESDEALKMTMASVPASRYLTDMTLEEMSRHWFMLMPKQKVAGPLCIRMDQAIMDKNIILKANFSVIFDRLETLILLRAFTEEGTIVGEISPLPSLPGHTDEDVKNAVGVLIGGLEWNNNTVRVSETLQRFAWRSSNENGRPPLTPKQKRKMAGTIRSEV
Chain of Genome polyprotein (P29990 2492-3391 limits assumed): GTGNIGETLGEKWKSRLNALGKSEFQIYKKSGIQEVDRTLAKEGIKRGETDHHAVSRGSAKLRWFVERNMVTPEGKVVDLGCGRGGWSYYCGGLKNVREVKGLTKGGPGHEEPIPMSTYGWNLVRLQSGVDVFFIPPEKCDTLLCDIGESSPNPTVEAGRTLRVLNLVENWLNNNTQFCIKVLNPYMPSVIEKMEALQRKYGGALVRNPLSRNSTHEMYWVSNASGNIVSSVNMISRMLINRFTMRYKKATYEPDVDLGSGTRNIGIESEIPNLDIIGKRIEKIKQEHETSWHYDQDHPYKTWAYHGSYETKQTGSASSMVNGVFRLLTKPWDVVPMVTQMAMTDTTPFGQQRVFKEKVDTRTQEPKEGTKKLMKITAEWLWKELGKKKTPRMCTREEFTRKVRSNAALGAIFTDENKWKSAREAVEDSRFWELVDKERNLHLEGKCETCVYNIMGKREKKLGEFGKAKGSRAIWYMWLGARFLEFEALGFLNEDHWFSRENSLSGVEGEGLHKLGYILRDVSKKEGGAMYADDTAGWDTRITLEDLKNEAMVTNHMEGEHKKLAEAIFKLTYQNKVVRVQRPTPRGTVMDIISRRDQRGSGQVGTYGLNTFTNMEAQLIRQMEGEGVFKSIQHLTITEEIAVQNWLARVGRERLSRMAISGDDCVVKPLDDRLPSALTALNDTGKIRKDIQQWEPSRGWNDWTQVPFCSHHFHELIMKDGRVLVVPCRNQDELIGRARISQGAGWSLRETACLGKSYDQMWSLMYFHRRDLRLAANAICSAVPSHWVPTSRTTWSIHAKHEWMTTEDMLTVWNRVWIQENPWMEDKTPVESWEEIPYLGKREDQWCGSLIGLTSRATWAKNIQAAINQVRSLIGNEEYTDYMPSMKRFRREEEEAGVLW

As for `C=CCOc1ccc(/C=C2\SC(=S)N(NS(=O)(=O)c3ccc(C)cc3)C2=O)cc1`, the EC50 was 1.66 µM (active) in [1] and > 160 µM (inactive) in assay [2]. Further, the AC50 (usually the concentration giving half of the maximal activity seen) in assay [3] was 11.7 µM (active). Besides, in assay [4], the CC50 (usually the concentration giving 50% cytotoxicity) was 25 µM (active). For the same molecule, the IC50 in [5] was 32.9 µM (active).

On to `COc1ccc(-c2csc(NC(=O)CSc3nc(SC)ns3)n2)cc1`, for which the EC50 in assay [6] was > 53 µM (inactive). Also, the IC50 in assay [7] was 4.64 µM (active); in [8], 1.75 µM (active).

On to `CCN1/C(=C/c2ccc3cc(C)cc(C)c3[n+]2CC)Sc2cc(C)ccc21`, for which the IC50 in [9] was 17.6 µM (active). In addition, the AC50 in [10] is 2.86 µM (active); in assay [3], 7.93 µM (active).

With `Cc1nnc(N/N=C/c2ccccc2O)n1N`, the IC50 in assay [11] was > 128 µM (inactive). The EC50 in assay [12] is 4.08 µM (active). In addition, the AC50 in assay [13] was 7.65 µM (active); in [14], 13.3 µM (active).

With `CN1C(=O)c2cc(NC(=O)c3ccc(C(F)(F)F)cc3)ccc2OC[C@@H]2O[C@@H](CC(=O)NC3Cc4ccccc4C3)CC[C@@H]21`, the AC50 in [15] is 4.71 µM (active); in assay [16] it was < 0.195 µM (active); in assay [17], 49.1 µM (active).
